{"source": "patent US12186303B2", "about": "“Feed additive for cattle comprising n-acetyl-l-tryptophan as active ingredient” (CJ CHEILJEDANG CORPORATION, priority 2018, dated 2025)", "test_system": "Korean native steers", "assay": "Complete blood cell count (CBC) under heat stress conditions", "format": "in vivo, Korean native cattle", "details": "for GRA (0-2.4) / HCT (23-33) / HGB (8.0-15.0) / LYM (2.5-7.5) / MCH (14-18) / MCHC (30-36) / MCV (40-60) / MON (0-0.84) / MPV (4.5-7.6) / PCT (0.15-0.40) / PDW (56-80) / PLT (100-800) / RBC (5.0-10.0) / RDW (16-20) / WBC (4.0-12.0): 0.1% NALT", "from_the_text": "After grouping the animals by statistical analysis of initial body weights, the animals were bred in 1.0×1.5 m^2 individual pens during the experiment period. The feed was offered based on an amount of dry matter of daily total mixed ration (TMR) per head. After 7 days of an adaptation period for N-acetyl-L-tryptophan (NALT), a mixture of 0.1% N-acetyl-L-tryptophan (NALT) and the total mixed ration was fed to individual animals every morning at 8 a.m. for 6 weeks, and water was available ad libitum. Total amounts of L-tryptophan ingested by the control and the experimental group (NALT-treated group) by feeding NALT were 6.0 g/day/head and 18.2 g/day/head, respectively. The experiment was performed such that the NALT-treated group ingested 12.2 g/day/head more L-tryptophan than the control.\nMeanwhile, results of growth performance analysis (body weight and average feed intake) and genetic analysis of loin tissue were obtained by statistically comparing and analyzing significant differences between the control and the NALT-treated group, and results of hematological analysis were obtained via statistical comparison and analysis depending on NALT treatment, experiment period (days), and interaction (treatment×days). These numerical values were expressed as average values, and a significance test was performed at the 5% level using Student's t-test by using a JMP 5.0 software package (SAS Institute Inc., Cary, NC, USA).\nBlood samples were collected from a jugular vein of each sentinel animal before offering the feed at the starting day of the experiment (week 0), the mid-point of the experiment (week 5), and the final day of the experiment (week 10) and stored in a vacutainer (Becton Dickinson, Franklin Lakes, NJ, USA). Complete blood cell count (CBC) was performed using whole blood using a VetScan HM2 (Abaxis, Union City, CA, USA), and hematological properties were identified using serum with a biochemical autoanalyzer (FUJI DRI-CHEM 7000, Fujifilm, Tokyo, Japan). In addition, total protein (TP), albumin (ALB), creatinine phosphokinase (CPK), and blood urea nitrogen (BUN), which are related to blood protein metabolism, were analyzed; triglycerides (TG) and non-esterified fatty acid (NEFA), which are related to energy metabolism, were analyzed; and sodium (Na), chlorine (CI), and potassium (K), which are blood electrolytes, were analyzed."}
{"smiles": "CC(=O)N[C@@H](Cc1c[nH]c2ccccc12)C(=O)O", "note": "[NALT, N-acetyl-L-tryptophan]", "values": [{"measurement": "All CBC test indicators, effect of treatment with 0.1% NALT", "result": "No statistically significant difference"}, {"measurement": "Values of hematological indicators (CBC) relative to normal ranges", "result": "within normal ranges"}, {"measurement": "GRA (0-2.4)", "setting": "Day 0", "result": "3.16 10^3/μL"}, {"measurement": "HCT (23-33)", "setting": "Day 0", "result": 6.95, "unit": "%"}, {"measurement": "HGB (8.0-15.0)", "setting": "Day 0", "result": 13.4, "unit": "g/dL"}, {"measurement": "LYM (2.5-7.5)", "setting": "Day 0", "result": "6.08 10^3/μL"}, {"measurement": "MCH (14-18)", "setting": "Day 0", "result": 14.8, "unit": "pg"}, {"measurement": "MCHC (30-36)", "setting": "Day 0", "result": 38.3, "unit": "g/dL"}, {"measurement": "MCV (40-60)", "setting": "Day 0", "result": 38.8, "unit": "fL"}, {"measurement": "MON (0-0.84)", "setting": "Day 0", "result": "0.22 10^3/μL"}, {"measurement": "MPV (4.5-7.6)", "setting": "Day 0", "result": 6.95, "unit": "fL"}, {"measurement": "PCT (0.15-0.40)", "setting": "Day 0", "result": 0.24, "unit": "%"}, {"measurement": "PDW (56-80)", "setting": "Day 0", "result": 34.1, "unit": "%"}, {"measurement": "PLT (100-800)", "setting": "Day 0", "result": "332 10^3/μL"}, {"measurement": "RBC (5.0-10.0)", "setting": "Day 0", "result": "9.13 10^6/μL"}, {"measurement": "RDW (16-20)", "setting": "Day 0", "result": 23.6, "unit": "%"}, {"measurement": "WBC (4.0-12.0)", "setting": "Day 0", "result": "9.60 10^3/μL"}, {"measurement": "GRA (0-2.4)", "setting": "Day 35", "result": "3.61 10^3/μL"}, {"measurement": "HCT (23-33)", "setting": "Day 35", "result": 6.58, "unit": "%"}, {"measurement": "HGB (8.0-15.0)", "setting": "Day 35", "result": 11.7, "unit": "g/dL"}, {"measurement": "LYM (2.5-7.5)", "setting": "Day 35", "result": "5.67 10^3/μL"}, {"measurement": "MCH (14-18)", "setting": "Day 35", "result": 14.7, "unit": "pg"}, {"measurement": "MCHC (30-36)", "setting": "Day 35", "result": 37.1, "unit": "g/dL"}, {"measurement": "MCV (40-60)", "setting": "Day 35", "result": 40.0, "unit": "fL"}, {"measurement": "MON (0-0.84)", "setting": "Day 35", "result": "0.46 10^3/μL"}, {"measurement": "MPV (4.5-7.6)", "setting": "Day 35", "result": 6.58, "unit": "fL"}, {"measurement": "PCT (0.15-0.40)", "setting": "Day 35", "result": 0.24, "unit": "%"}, {"measurement": "PDW (56-80)", "setting": "Day 35", "result": 31.5, "unit": "%"}, {"measurement": "PLT (100-800)", "setting": "Day 35", "result": "371 10^3/μL"}, {"measurement": "RBC (5.0-10.0)", "setting": "Day 35", "result": "8.04 10^6/μL"}, {"measurement": "RDW (16-20)", "setting": "Day 35", "result": 22.7, "unit": "%"}, {"measurement": "WBC (4.0-12.0)", "setting": "Day 35", "result": "9.74 10^3/μL"}, {"measurement": "GRA (0-2.4)", "setting": "Day 70", "result": "3.66 10^3/μL"}, {"measurement": "HCT (23-33)", "setting": "Day 70", "result": 9.80, "unit": "%"}, {"measurement": "HGB (8.0-15.0)", "setting": "Day 70", "result": 13.8, "unit": "g/dL"}, {"measurement": "LYM (2.5-7.5)", "setting": "Day 70", "result": "4.91 10^3/μL"}, {"measurement": "MCH (14-18)", "setting": "Day 70", "result": 15.7, "unit": "pg"}, {"measurement": "MCHC (30-36)", "setting": "Day 70", "result": 37.1, "unit": "g/dL"}, {"measurement": "MCV (40-60)", "setting": "Day 70", "result": 42.5, "unit": "fL"}, {"measurement": "MON (0-0.84)", "setting": "Day 70", "result": "0.81 10^3/μL"}, {"measurement": "MPV (4.5-7.6)", "setting": "Day 70", "result": 9.80, "unit": "fL"}, {"measurement": "PCT (0.15-0.40)", "setting": "Day 70", "result": 0.24, "unit": "%"}, {"measurement": "PDW (56-80)", "setting": "Day 70", "result": 29.5, "unit": "%"}, {"measurement": "PLT (100-800)", "setting": "Day 70", "result": "196 10^3/μL"}, {"measurement": "RBC (5.0-10.0)", "setting": "Day 70", "result": "8.83 10^6/μL"}, {"measurement": "RDW (16-20)", "setting": "Day 70", "result": 23.6, "unit": "%"}, {"measurement": "WBC (4.0-12.0)", "setting": "Day 70", "result": "9.38 10^3/μL"}]}
